Test results from PMC4965013, “Open Source Drug Discovery with the Malaria Box Compound Collection for Neglected Diseases and Beyond” (PLoS Pathogens, 2016).

Assays:
P. falciparum = assay: EC50 listed in S2 Table Metabolomics (used to set the concentration tested); type: cell-based; details: Plasmodium falciparum; EC50 used for Factor_XEC50 in metabolomics; read-out: EC50_nM
[1] = system: P. falciparum 3D7 trophozoites; assay: Metabolomic fingerprint profiling LC-MS; type: cell-based, Plasmodium falciparum; set-up: UDP-D-glucose / ADP-D-glucose: unit not given here; details: for Acetyllysine / N-acetyl-L-ornithine / N-carbamoyl-L-aspartate / NADPH / dAMP / dCMP / dTDP / dTMP / dTTP / dihydroorotate / orotate / DLH / DLS/SDL/SID / PD / PEE / PVNF / 3-phosphoglycerate / ADP-D-glucose / ATP / CDP / D-sedoheptulose-1/7-phosphate / FAD / GMP / NAD+ / NADP+ / Octoluse Bisphosphate / Pyroglutamic acid / UDP-D-glucose / UDP-D-glucuronate / UDP-N-acetyl-glucosamine / UDP / UMP / UTP / a-ketoglutarate / citrate/isocitrate / cytidine / dATP / dGMP/AMP / fumarate / glucose-1/6-phosphate / glycerate / guanine / guanosine / hypoxanthine / indole / inosine / nicotinate / ornithine / phosphoenolpyruvate / pyruvate / ribose-phosphate / sarcosine/alanine / sn-glycerol-3-phosphate / succinate/methylmalonic acid / uridine / xanthosine: S2 Table Metabolomics; for Acetyllysine: metabolite Acetyllysine; for N-acetyl-L-ornithine: metabolite N-acetyl-L-ornithine; for N-carbamoyl-L-aspartate: metabolite N-carbamoyl-L-aspartate; for NADPH: metabolite NADPH; for dAMP: metabolite dAMP; for dCMP: metabolite dCMP; for dTDP: metabolite dTDP; for dTMP: metabolite dTMP; for dTTP: metabolite dTTP; for dihydroorotate: metabolite dihydroorotate; for orotate: metabolite orotate; for DLH: peptide DLH; for DLS/SDL/SID: peptide DLS/SDL/SID; for PD: peptide PD; for PEE: peptide PEE; for PVNF: peptide PVNF; for 3-phosphoglycerate: metabolite 3-phosphoglycerate; for ADP-D-glucose: metabolite ADP-D-glucose; for ATP: metabolite ATP; for CDP: metabolite CDP; for CDP / D-sedoheptulose-1/7-phosphate / GMP / Octoluse Bisphosphate / UDP / UMP / UTP / citrate/isocitrate / dGMP/AMP / fumarate / glucose-1/6-phosphate / glycerate / guanine / guanosine / inosine / pyruvate / sarcosine/alanine / succinate/methylmalonic acid / uridine / xanthosine: change in metabolite level after compound treatment; for D-sedoheptulose-1/7-phosphate: metabolite D-sedoheptulose-1/7-phosphate; for FAD: metabolite FAD; for GMP: metabolite GMP; for NAD+: metabolite NAD+; for NADP+: metabolite NADP+; for Octoluse Bisphosphate: metabolite Octoluse Bisphosphate; for Pyroglutamic acid: metabolite Pyroglutamic acid; for UDP-D-glucose: metabolite UDP-D-glucose; for UDP-D-glucuronate: metabolite UDP-D-glucuronate; for UDP-N-acetyl-glucosamine: metabolite UDP-N-acetyl-glucosamine; for UDP: metabolite UDP; for UMP: metabolite UMP; for UTP: metabolite UTP; for a-ketoglutarate: metabolite a-ketoglutarate; for citrate/isocitrate: metabolite citrate/isocitrate; for cytidine: metabolite cytidine; for dATP: metabolite dATP; for dGMP/AMP: metabolite dGMP/AMP; for fumarate: metabolite fumarate; for glucose-1/6-phosphate: metabolite glucose-1/6-phosphate; for glycerate: metabolite glycerate; for guanine: metabolite guanine; for guanosine: metabolite guanosine; for hypoxanthine: metabolite hypoxanthine; for indole: metabolite indole; for inosine: metabolite inosine; for 2_3-Diphosphoglyceric acid / 4-phosphopantothenate / 6-phospho-D-gluconate / FMN / IMP / Pyrophosphate / Sedoheptoluse bisphosphate / cyclic-AMP / glutathione disulfide / lactate / myo-inositol: metabolite level change after treatment; for nicotinate: metabolite nicotinate; for ornithine: metabolite ornithine; for phosphoenolpyruvate: metabolite phosphoenolpyruvate; for pyruvate: metabolite pyruvate; for ribose-phosphate: metabolite ribose-phosphate; for sarcosine/alanine: metabolite sarcosine/alanine; for sn-glycerol-3-phosphate: metabolite sn-glycerol-3-phosphate; for succinate/methylmalonic acid: metabolite succinate/methylmalonic acid; for uridine: metabolite uridine; for xanthosine: metabolite xanthosine

COc1ccc(NC(=O)C2c3ccccc3C(=O)N(CC(C)C)C2c2cccs2)cc1Cl (stereo not drawn) [MMV000642]
EC50 (P. falciparum): 20.2 nM | Acetyllysine [1]: -5.193 | N-acetyl-L-ornithine [1]: -3.747 | N-carbamoyl-L-aspartate [1]: -2.41 | NADPH [1]: -0.3813 | dAMP [1]: 2.141 | dCMP [1]: 1.187 | dTDP [1]: 1.699 | dTMP [1]: 3.58 | dTTP [1]: 1.5 | dihydroorotate [1]: -2.555 | orotate [1]: -0.348 | DLH [1]: -5.968 | DLS/SDL/SID [1]: -3.9977 | PD [1]: -2.5956 | PEE [1]: -3.5386 | PVNF [1]: -6.505 | 3-phosphoglycerate [1]: -0.2719 | ADP-D-glucose [1]: -0.1906 | ATP [1]: -1.554 | CDP [1]: -0.7723 | D-sedoheptulose-1/7-phosphate [1]: -1.211 | FAD [1]: -1.709 | GMP [1]: -1.9066 | NAD+ [1]: -0.5171 | NADP+ [1]: -0.1638 | Octoluse Bisphosphate [1]: -2.57 | Pyroglutamic acid [1]: 0.06474 | UDP-D-glucose [1]: -0.2074 | UDP-D-glucuronate [1]: -0.1541 | UDP-N-acetyl-glucosamine [1]: -0.04904 | UDP [1]: -1.27 | UMP [1]: -0.4497 | UTP [1]: -1.308 | a-ketoglutarate [1]: -0.0007361 | citrate/isocitrate [1]: -0.3751 | cytidine [1]: 0.1777 | dATP [1]: 0.01445 | dGMP/AMP [1]: -0.6011 | fumarate [1]: -0.3143 | glucose-1/6-phosphate [1]: -1.542 | glycerate [1]: -0.9599 | guanine [1]: 0.2177 | guanosine [1]: 0.8357 | hypoxanthine [1]: -0.2894 | indole [1]: -0.1989 | inosine [1]: 0.04742 | 2_3-Diphosphoglyceric acid [1]: -1.07 | 4-phosphopantothenate [1]: -0.7331 | 6-phospho-D-gluconate [1]: -0.5035 | FMN [1]: -0.2051 | IMP [1]: -0.1621 | Pyrophosphate [1]: -1.141 | Sedoheptoluse bisphosphate [1]: -1.388 | cyclic-AMP [1]: -0.8649 | glutathione disulfide [1]: -0.7288 | lactate [1]: -1.097 | myo-inositol [1]: -1.4412 | nicotinate [1]: 0.5786 | ornithine [1]: 0.1669 | phosphoenolpyruvate [1]: 0.08762 | pyruvate [1]: -0.8949 | ribose-phosphate [1]: -0.3617 | sarcosine/alanine [1]: -1.783 | sn-glycerol-3-phosphate [1]: 1.156 | succinate/methylmalonic acid [1]: 0.05807 | uridine [1]: 1.2 | xanthosine [1]: -1.585

CCOC(=O)c1c(C)n(-c2ccc(Cl)cc2)c2ccc(OC(=O)C=Cc3ccccc3)cc12 [MMV666600]
EC50 (P. falciparum): 216 nM | Acetyllysine [1]: 0.2658 | N-acetyl-L-ornithine [1]: 0.3826 | N-carbamoyl-L-aspartate [1]: 0.5043 | NADPH [1]: -0.1791 | dAMP [1]: 0.1797 | dCMP [1]: 0.7303 | dTDP [1]: 0.6846 | dTMP [1]: 0.3563 | dTTP [1]: 0.1062 | dihydroorotate [1]: 0.2265 | orotate [1]: 0.0746 | DLH [1]: 0.4837 | DLS/SDL/SID [1]: 0.1278 | PD [1]: 0.2139 | PEE [1]: 0.4962 | PVNF [1]: 0.206 | 3-phosphoglycerate [1]: 0.1223 | ADP-D-glucose [1]: 0.3003 | ATP [1]: 0.3662 | CDP [1]: 0.7598 | D-sedoheptulose-1/7-phosphate [1]: 0.476 | FAD [1]: 0.1354 | GMP [1]: -0.291 | NAD+ [1]: 0.8191 | NADP+ [1]: 0.2752 | Octoluse Bisphosphate [1]: 0.3013 | Pyroglutamic acid [1]: 0.03669 | UDP-D-glucose [1]: 0.1154 | UDP-D-glucuronate [1]: 0.1408 | UDP-N-acetyl-glucosamine [1]: 0.05839 | UDP [1]: 0.7125 | UMP [1]: 0.02013 | UTP [1]: 0.206 | a-ketoglutarate [1]: -0.01449 | citrate/isocitrate [1]: 0.5294 | cytidine [1]: -0.3168 | dATP [1]: 0.2753 | dGMP/AMP [1]: 0.4942 | fumarate [1]: 0.3444 | glucose-1/6-phosphate [1]: 0.5114 | glycerate [1]: 0.0963 | guanine [1]: 0.1348 | guanosine [1]: -0.1252 | hypoxanthine [1]: 0.2037 | indole [1]: -0.0001746 | inosine [1]: 0.0653 | 2_3-Diphosphoglyceric acid [1]: 0.1463 | 4-phosphopantothenate [1]: 0.3013 | 6-phospho-D-gluconate [1]: 0.08781 | FMN [1]: -0.2862 | IMP [1]: 0.3406 | Pyrophosphate [1]: 0.1816 | Sedoheptoluse bisphosphate [1]: 0.1719 | cyclic-AMP [1]: 0.1868 | glutathione disulfide [1]: 0.1725 | lactate [1]: 0.1409 | myo-inositol [1]: -0.8322 | nicotinate [1]: 0.07374 | ornithine [1]: 0.01544 | phosphoenolpyruvate [1]: 0.01685 | pyruvate [1]: -0.07405 | ribose-phosphate [1]: 0.1875 | sarcosine/alanine [1]: -0.13 | sn-glycerol-3-phosphate [1]: -0.02611 | succinate/methylmalonic acid [1]: 0.1082 | uridine [1]: 0.1838 | xanthosine [1]: 0.13

COc1ccc(-c2c(C)nn3c(N)c(C#N)cnc23)cc1OC [MMV396797]
EC50 (P. falciparum): 477 nM | Acetyllysine [1]: -1.561 | N-acetyl-L-ornithine [1]: -1.053 | N-carbamoyl-L-aspartate [1]: 1.252 | NADPH [1]: 0.3593 | dAMP [1]: 0.5405 | dCMP [1]: 1.351 | dTDP [1]: 0.6464 | dTMP [1]: 1.055 | dTTP [1]: 0.1329 | dihydroorotate [1]: 0.9521 | orotate [1]: -0.1403 | DLH [1]: -2.487 | DLS/SDL/SID [1]: -1.077 | PD [1]: -0.9589 | PEE [1]: -1.335 | PVNF [1]: -1.44 | 3-phosphoglycerate [1]: -0.332 | ADP-D-glucose [1]: 0.000409 | ATP [1]: -0.6534 | CDP [1]: 0.6836 | D-sedoheptulose-1/7-phosphate [1]: 0.6682 | FAD [1]: 0.02733 | GMP [1]: 0.6724 | NAD+ [1]: 0.9649 | NADP+ [1]: 0.1001 | Octoluse Bisphosphate [1]: -0.3618 | Pyroglutamic acid [1]: -0.2754 | UDP-D-glucose [1]: 0.1529 | UDP-D-glucuronate [1]: 0.1151 | UDP-N-acetyl-glucosamine [1]: 0.3642 | UDP [1]: 0.7706 | UMP [1]: 0.7638 | UTP [1]: 0.02297 | a-ketoglutarate [1]: -0.2189 | citrate/isocitrate [1]: -0.742 | cytidine [1]: -0.8311 | dATP [1]: -0.6595 | dGMP/AMP [1]: 0.1443 | fumarate [1]: -0.5921 | glucose-1/6-phosphate [1]: 0.3476 | glycerate [1]: -0.7107 | guanine [1]: -0.1249 | guanosine [1]: -0.2185 | hypoxanthine [1]: -0.6773 | indole [1]: -0.01428 | inosine [1]: -0.2482 | 2_3-Diphosphoglyceric acid [1]: 0.4884 | 4-phosphopantothenate [1]: 0.5554 | 6-phospho-D-gluconate [1]: 0.1152 | FMN [1]: 0.2278 | IMP [1]: 0.7032 | Pyrophosphate [1]: 0.391 | Sedoheptoluse bisphosphate [1]: -0.2371 | cyclic-AMP [1]: 0.5443 | glutathione disulfide [1]: 0.05378 | lactate [1]: -0.5978 | myo-inositol [1]: -0.8022 | nicotinate [1]: 0.06441 | ornithine [1]: -0.4887 | phosphoenolpyruvate [1]: -0.1659 | pyruvate [1]: -0.5507 | ribose-phosphate [1]: -0.3757 | sarcosine/alanine [1]: -0.5535 | sn-glycerol-3-phosphate [1]: -0.1272 | succinate/methylmalonic acid [1]: -0.001406 | uridine [1]: -0.3835 | xanthosine [1]: -0.6585
